Reference: ChEMBL document CHEMBL1201862, “PubChem BioAssay data set” (2004)
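The compound was tested at five concentrations on cells cultured in 96-well plates, with a 48-hour exposure period. Here, GI50 denotes the concentration required for 50% inhibition of growth.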 Calls of active or inactive are those of the source. No stated cut-off is given here; in the data, active = GI50 up to about 1.1 µM and inactive = higher.

Legend:
Assay in all cases: DTP human tumour cell line panel, 48 h
NCI-H23 = tested on: NCI-H23
MOLT-4 = tested on: MOLT-4
SK-OV-3 = tested on: SK-OV-3
NCI-H522 = tested on: NCI-H522
EKVX = tested on: EKVX
OVCAR-4 = tested on: OVCAR-4
A549 = tested on: A549
M14 = tested on: M14
HCT-116 = tested on: HCT-116
Malme-3M = tested on: Malme-3M
MDA-N = tested on: MDA-N
NCI-H226 = tested on: NCI-H226
HL-60 = tested on: HL-60
OVCAR-5 = tested on: OVCAR-5
UO-31 = tested on: UO-31
SN12C = tested on: SN12C
RXF 393 = tested on: RXF 393
IGROV-1 = tested on: IGROV-1
786-0 = tested on: 786-0
DU-145 = tested on: DU-145

Measured: GI50

Cc1cc(S(=O)(=O)NC2=NNC(C)CN2)c(S)cc1Cl (stereo not given)
inactive: NCI-H23 48.6 µM | MOLT-4 44.2 µM | SK-OV-3 > 100 µM | NCI-H522 22.3 µM | EKVX 96.6 µM | OVCAR-4 44.1 µM | A549 37.9 µM | M14 27.7 µM | HCT-116 38.4 µM | Malme-3M 16.7 µM | MDA-N 39.6 µM | NCI-H226 45.2 µM | HL-60 > 100 µM | OVCAR-5 93.3 µM | UO-31 51.5 µM | SN12C 80.5 µM | RXF 393 50.9 µM | IGROV-1 23.9 µM | 786-0 35 µM | DU-145 75.7 µM

Cc1cc2c(=O)[nH]nc(N)c2c(N)n1
inactive: NCI-H23 > 100 µM | MOLT-4 > 100 µM | SK-OV-3 > 100 µM | NCI-H522 > 100 µM | EKVX > 100 µM | OVCAR-4 > 100 µM | A549 > 100 µM | M14 > 100 µM | HCT-116 > 100 µM | Malme-3M > 100 µM | MDA-N > 100 µM | NCI-H226 > 100 µM | HL-60 > 100 µM | OVCAR-5 > 100 µM | UO-31 > 100 µM | SN12C > 100 µM | RXF 393 > 100 µM | IGROV-1 > 100 µM | 786-0 > 100 µM | DU-145 > 100 µM

O=C(O)C(Cl)(c1ccccc1)c1ccccc1
inactive: NCI-H23 > 100 µM | MOLT-4 > 100 µM | SK-OV-3 > 100 µM | NCI-H522 > 100 µM | EKVX > 100 µM | OVCAR-4 > 100 µM | A549 > 100 µM | M14 > 100 µM | HCT-116 > 100 µM | Malme-3M > 100 µM | MDA-N > 100 µM | NCI-H226 > 100 µM | HL-60 > 100 µM | OVCAR-5 > 100 µM | UO-31 > 100 µM | SN12C > 100 µM | RXF 393 > 100 µM | IGROV-1 > 100 µM | 786-0 > 100 µM | DU-145 > 100 µM

COc1c(C)c2c(c(=O)c3c(C)cccc3n2C)c2c1c(=O)c1c(C)cccc1n2C
inactive: NCI-H23 > 10 µM | MOLT-4 > 10 µM | SK-OV-3 > 10 µM | NCI-H522 > 10 µM | EKVX > 10 µM | OVCAR-4 > 10 µM | A549 > 10 µM | M14 > 10 µM | HCT-116 > 10 µM | Malme-3M > 10 µM | MDA-N > 10 µM | NCI-H226 > 10 µM | HL-60 > 10 µM | OVCAR-5 > 10 µM | UO-31 > 10 µM | SN12C > 10 µM | RXF 393 > 10 µM | IGROV-1 > 10 µM | 786-0 > 10 µM | DU-145 > 10 µM

COc1cccc2cc(C(=O)NC34CC5CC(CC(C5)C3)C4)c(=N)oc12
inactive: NCI-H23 > 100 µM | MOLT-4 1.35 µM | SK-OV-3 58.6 µM | NCI-H522 23.4 µM | EKVX > 61.8 µM | OVCAR-4 > 60.4 µM | A549 64.7 µM | M14 > 100 µM | HCT-116 52.1 µM | Malme-3M > 86.5 µM | MDA-N > 100 µM | NCI-H226 > 61 µM | HL-60 3.13 µM | OVCAR-5 > 100 µM | UO-31 2.67 µM | SN12C > 100 µM | RXF 393 33.6 µM | IGROV-1 > 46.3 µM | 786-0 59.8 µM | DU-145 > 100 µM

CCOC(=O)c1c(Nc2ccccc2)sc2cccnc12
inactive: NCI-H23 30.3 µM | MOLT-4 15.6 µM | SK-OV-3 36 µM | NCI-H522 21 µM | EKVX 18.5 µM | OVCAR-4 23.3 µM | A549 3.24 µM | M14 4.49 µM | HCT-116 5.92 µM | Malme-3M 30.3 µM | MDA-N 6.73 µM | NCI-H226 5.68 µM | HL-60 15.1 µM | OVCAR-5 12.4 µM | UO-31 1.94 µM | SN12C 9.18 µM | RXF 393 25.7 µM | IGROV-1 23 µM | 786-0 11.6 µM | DU-145 28.7 µM
